Results as given in patent publication US7365098B2, “N'-cyano-N-methyl-imidamide derivatives” (Bayer CropScience AG, priority 2002, dated 2008).

How the values were obtained:
Meloidogyne incognita = test: Meloidogyne test (gall formation on lettuce roots); format: in vivo; settings: for nematizidal activity (formation of galls): Meloidogyne incognita egg/larvae, lettuce in sand, result in words
Method: • Solvent: 7 parts by weight of dimethylformamide • Emulsifier: 2 parts by weight of alkylaryl polyglycol ether To produce a suitable preparation of active compound, 1 part by weight of active compound is mixed with the stated amount of solvent and emulsifier, and the concentrate is diluted with water to the desired concentration. Containers are filled with sand, solution of active compound, Meloidogyne incognita egg/larvae suspension and lettuce seeds. The lettuce seeds germinate and the plants develop. On the roots, galls are formed. After the desired period of time, the nematizidal activity is the determined in percent by the formation of galls. 100% means that no galls were found; 0% means that the number of galls on the treated plants corresponds to that of the untreated control. […] The efficacy of the compounds is stated as kill rate in %.

[1] = logP determination by HPLC on reversed-phase column (EEC-Directive 79/831 Annex V.A8); format: physicochemical; settings: reversed-phase C 18, 43° C., acidic range (0.1% aqueous phosphoric acid/acetonitrile gradient); for chromatographic logP: reversed-phase HPLC column (C 18)
Method: The logP values given in table 1 were determined in accordance with EEC-Directive 79/831 Annex V.A8 by HPLC (High Performance Liquid Chromatography) on a reversed-phase column (C 18). Temperature: 43° C. Mobile phases for the determination in the acidic range: 0.1% aqueous phosphoric acid, acetonitrile; linear gradient from 10% acetonitrile to 90% acetonitrile. Calibration was carried out using unbranched alkan-2-ones (having 3 to 16 carbon atoms) whose logP values are known (determination of the lopP values by the retention times using linear interpolation between two successive alkanones).

Spodoptera frugiperda = Spodoptera frugiperda test (dipped cabbage leaves); format: in vivo; settings: Spodoptera frugiperda caterpillars on cabbage leaves; result in words
Method: [table] To produce a suitable preparation of active compound, 1 part by weight of active compound is mixed with the stated amount of solvent and emulsifier, and the concentrate is diluted with water to the desired concentration. Cabbage leaves (Brassica oleracea) are treated by being dipped into the preparation of active compound of the desired concentration and are populated with caterpillars of the Heerwurms (Spodoptera frugiperda) while the leaves are still moist. After the desired period of time, the kill in % is determined. 100% means that all caterpillars have been killed. 0% means that none of the caterpillars have been killed.

Phaedon cochleariae = test: Phaedon larvae test (dipped cabbage leaves); format: in vivo; settings: Phaedon cochleariae larvae on cabbage leaves; result in words
Method: • Solvent: 7 parts by weight of dimethylformamide • Emulsifier: 2 parts by weight of alkylaryl polyglycol ether To produce a suitable preparation of active compound, 1 part by weight of active compound is mixed with the stated amounts of solvent and emulsifier, and the concentrate is diluted with emulsifier-containing water to the desired concentration. Cabbage leaves (Brassica oleracea) are treated by being dipped into the preparation of active compound of the desired concentration and are populated with larvae of the mustard beetle (Phaedon cochleariae) while the leaves are still moist. After the desired period of time, the kill in % is determined. 100% means that all beetle larvae have been killed. 0% means that none of the beetle larvae have been killed.

Row | Structure (SMILES) | nematizidal activity (formation of galls) (Meloidogyne incognita) | chromatographic logP [1] | also measured
1 | C/C(=N\C#N)N(C)C(C)c1ccc(Cl)cc1Cl (stereo not drawn) [Example 17] | highly effective | 2.58 | 
2 | CC/C(=N\C#N)N(C)C(C)c1ccc(Cl)c(Br)c1 (stereo not drawn) [Example 21] |  | 2.94 | 
3 | CC/C(=N\C#N)N(C)C(C)c1cc(F)c(F)cc1F (stereo not drawn) [Example 16] |  | 2.31 | 
4 | CC/C(=N\C#N)N(C)[C@@H](C)c1cc(F)c(Cl)cc1F [Example 12] | highly effective | 2.59 | 
5 | CC/C(=N\C#N)N(C)C(C)c1cc(Cl)c(Cl)cc1Cl (stereo not drawn) [Example 20] | highly effective | 3.18 | 
6 | CC/C(=N\C#N)N(C)C(C)c1ccc(Cl)cc1F (stereo not drawn) [Example 4] | highly effective |  | 
7 | CC/C(=N\C#N)N(C)C(C)c1ccc(Cl)c(F)c1 (stereo not drawn) [Example 8] | highly effective | 2.61 | 
8 | CC/C(=N\C#N)N(C)C(C)c1cc(F)c(Br)cc1F (stereo not drawn) [Example 30] |  | 2.66 | 
9 | CC/C(=N\C#N)N(C)C(C)c1cc(F)c(Cl)cc1F (stereo not drawn) [Example 5] | highly effective |  | kill of caterpillars (Spodoptera frugiperda): highly effective
10 | CC/C(=N\C#N)N(C)C(C)c1ccc(Cl)cc1Cl (stereo not drawn) [drawing 44] |  |  | efficacy stated as kill rate in % (Meloidogyne incognita; 20 ppm active compound): 20 ppm: 100%
11 | CC/C(=N\C#N)N(C)[C@H](C)c1cc(F)c(Cl)cc1F [Example 13] | highly effective | 2.59 | 
12 | CC/C(=N\C#N)N(C)C(C)c1ccc(Cl)c(Cl)c1 (stereo not drawn) [Example 15] | highly effective | 2.9 | 
13 | CC/C(=N\C#N)N(C)C(C)c1c(F)cccc1Cl (stereo not drawn) [Example 22] | highly effective | 2.19 | 
14 | CC/C(=N\C#N)NC(C)c1ccc(Cl)cc1Cl (stereo not drawn) [drawing 45, reference compound] |  |  | efficacy stated as kill rate in % (Meloidogyne incognita; 20 ppm active compound): 20 ppm: 0%
15 | CC/C(=N\C#N)N(C)C(C)c1cccc(Cl)c1Cl (stereo not drawn) [Example 29] | highly effective | 2.59 | 
16 | CC/C(=N\C#N)N(C)C(C)c1ccc(Cl)c(F)c1 (stereo not drawn) [drawing 46] |  |  | efficacy stated as kill rate in % (Meloidogyne incognita; 4 ppm active compound): 4 ppm: 100%
17 | CC/C(=N\C#N)N(C)C(C)c1ccc(Cl)cc1Cl (stereo not drawn) [Example 2, N′-Cyano-N-[1-(2,4-dichlorophenyl)ethyl]-N-methylpropaneimidamide] |  | 2.8 | melting point: 148 °C
18 | C/C(=N\C#N)N(C)C(C)c1ccc(F)c(F)c1 (stereo not drawn) [Example 26] | highly effective | 2.09 | 

Row | Structure (SMILES) | nematizidal activity (formation of galls) (Meloidogyne incognita) | chromatographic logP [1] | also measured
19 | C/C(=N\C#N)NC(C)c1ccc(Cl)cc1Cl (stereo not drawn) [reference compound] |  |  | efficacy stated as kill rate in % (Meloidogyne incognita; 5 ppm active compound): 5 ppm: 0%
20 | CC/C(=N\C#N)NC(C)c1ccc(Cl)c(F)c1 (stereo not drawn) [reference compound] |  |  | efficacy stated as kill rate in % (Meloidogyne incognita; 4 ppm active compound): 4 ppm: 0%
21 | C/C(=N\C#N)N(C)C(C)c1ccc(Cl)c(Cl)c1 (stereo not drawn) [Example 14] | highly effective | 2.68 | 
22 | C/C(=N\C#N)N(C)C(C)c1ccc(Cl)cc1Cl (stereo not drawn) [drawing 48] |  |  | efficacy stated as kill rate in % (Meloidogyne incognita; 4 ppm active compound): 4 ppm: 100%
23 | C/C(=N\C#N)N(C)C(C)c1cc(Cl)ccc1Cl (stereo not drawn) [Example 24] | highly effective | 2.46 | 
24 | CC/C(=N\C#N)NC(C)c1ccc(Cl)cc1Cl (stereo not drawn) [Example 1, N′-Cyano-N-[1-(2,4-dichlorophenyl)ethyl]propaneimidamide] |  | 2.56 | 
25 | C/C(=N\C#N)N(C)C(C)c1cc(Cl)c(Cl)cc1Cl (stereo not drawn) [Example 19] | highly effective | 2.9 | kill of caterpillars (Spodoptera frugiperda): highly effective; kill of beetle larvae (Phaedon cochleariae): highly effective
26 | C/C(=N\C#N)N(C)C(C)c1ccc(Cl)c(F)c1 (stereo not drawn) [Example 7] | highly effective | 2.4 | 
27 | CC/C(=N\C#N)N(C)C(C)c1ccc(Cl)c(Cl)c1Cl (stereo not drawn) [Example 18] | highly effective |  | 
28 | C/C(=N\C#N)N(C)C(C)c1ccc(Cl)cc1F (stereo not drawn) [Example 3] | highly effective |  | 
29 | CC/C(=N\C#N)N(C)C(C)c1cc(F)c(Cl)cc1Cl (stereo not drawn) [Example 9] | highly effective |  | kill of caterpillars (Spodoptera frugiperda): highly effective
30 | C/C(=N\C#N)N(C)C(C)c1cccc(Cl)c1Cl (stereo not drawn) [Example 28] | highly effective | 2.37 | 
31 | CC/C(=N\C#N)N(C)C(C)c1ccc(F)c(F)c1 (stereo not drawn) [Example 27] | highly effective | 2.32 | 
32 | CC/C(=N\C#N)N(C)C(C)c1c(F)cccc1Cl (stereo not drawn) [Example 23] | highly effective |  | logP [1]: logP: 2.40
33 | C/C(=N\C#N)N(C)C(C)c1cc(F)c(Cl)cc1F (stereo not drawn) [Example 6] | highly effective |  | 
34 | CC/C(=N\C#N)N(C)C(C)c1ccc(Br)c(Cl)c1 (stereo not drawn) [Example 25] | highly effective | 2.94 | 
35 | CC/C(=N\C#N)N(C)[C@H](C)c1ccc(Cl)cc1F [Example 11] | highly effective | 2.55 | 
36 | CC/C(=N\C#N)N(C)[C@@H](C)c1ccc(Cl)cc1F [Example 10] | highly effective | 2.55 | 
